This is an account of results in PubChem BioAssay (NCI).

Among the test systems are NCI-H23 lung; SNB-75 CNS; LOX IMVI melanoma; MDA-MB-231 breast; SK-MEL-28 melanoma; HCT-116 colon; UO-31 renal; HOP-92 NSCLC; 786-0 renal; MOLT-4 leukemia.
Common to all, as to assay: growth of human tumour cells (NCI), 48 h

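48-hour exposure; five concentrations; linearly interpolated endpoints. GI50: concentration for 50% inhibition of growth. At the TGI there is no net growth.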 Bounds are passed on as bounds.

Consider `COc1cc(/C=C/c2cc(O)c3cc(C(C)=O)c(=O)oc3c2)cc2c1O[C@]1(C)CC[C@@H](O)C(C)(C)[C@H]1C2`, for which the values for the GI50 in the assay on NCI-H23 lung, in the assay with MDA-MB-231 breast and in the assay with HCT-116 colon were more than 22.2 µM, more than 26.7 µM and more than 19.7 µM, respectively. Moreover, the TGI with NCI-H23 lung was more than 55 µM; in the assay on SNB-75 CNS it was more than 48 µM; in the assay with LOX IMVI melanoma it was more than 42.2 µM; in the assay with MDA-MB-231 breast it was more than 92.3 µM; with SK-MEL-28 melanoma, more than 21.4 µM; in the assay on HCT-116 colon it was more than 52.3 µM. For the same molecule, the TGI was more than 26.2 µM in the assay with UO-31 renal, more than 28.5 µM in the assay with HOP-92 NSCLC, more than 25.3 µM with 786-0 renal and more than 26.4 µM in the assay with MOLT-4 leukemia.

Consider `COc1cccc2c1c(C(=O)C(=O)Nc1cc(C)no1)cn2Cc1ccc(F)cc1`, for which the GI50 was more than 40.5 µM with NCI-H23 lung; 3.42 µM in the assay on SNB-75 CNS; 7.87 µM with LOX IMVI melanoma; 5.41 µM in the assay on MDA-MB-231 breast; 7.59 µM in the assay on SK-MEL-28 melanoma; 5.58 µM in the assay on HCT-116 colon. The GI50 was 8.77 µM in the assay on UO-31 renal, 14.2 µM with HOP-92 NSCLC, 19.2 µM with 786-0 renal and 3.99 µM with MOLT-4 leukemia. Also, the TGI is more than 84 µM in the assay on NCI-H23 lung; more than 73.5 µM with SNB-75 CNS; more than 100 µM with LOX IMVI melanoma; more than 100 µM in the assay on MDA-MB-231 breast; more than 89.6 µM with SK-MEL-28 melanoma; more than 64.1 µM in the assay with HCT-116 colon. The TGI in the assay on UO-31 renal is more than 100 µM; with HOP-92 NSCLC it was more than 66 µM; in the assay with 786-0 renal, more than 100 µM; in the assay with MOLT-4 leukemia, more than 60.7 µM.

Consider `CCCC(=O)OC1C(C(O)CO)OC2OC(C)(C)OC21` (stereo not drawn), for which the TGI in the assay on NCI-H23 lung, in the assay on SNB-75 CNS, in the assay on LOX IMVI melanoma, with MDA-MB-231 breast, in the assay with SK-MEL-28 melanoma and in the assay on HCT-116 colon was more than 100 µM each time. Also, the TGI in the assay on UO-31 renal, in the assay on HOP-92 NSCLC, in the assay on 786-0 renal and in the assay on MOLT-4 leukemia was more than 100 µM throughout.

As for `COc1ccc(/C=C2\CCCC3=C2N=C2SC(C)=NN2C3c2ccc(OC)c(OC)c2)cc1OC` (stereo not drawn), the GI50 is 8.2 µM with NCI-H23 lung; 13.7 µM in the assay on SNB-75 CNS; 4.52 µM in the assay on LOX IMVI melanoma; 25.1 µM with MDA-MB-231 breast; 8.92 µM in the assay with SK-MEL-28 melanoma; 3.26 µM with HCT-116 colon. The GI50 in the assay on UO-31 renal was 5.99 µM; in the assay with HOP-92 NSCLC, 10.6 µM; in the assay with 786-0 renal, 11 µM; in the assay with MOLT-4 leukemia, 13.8 µM. For the same molecule, the TGI in the assay with NCI-H23 lung was more than 100 µM; in the assay on SNB-75 CNS, 64.2 µM; in the assay with LOX IMVI melanoma, 35.2 µM; with MDA-MB-231 breast it was more than 100 µM; with SK-MEL-28 melanoma it was more than 100 µM; in the assay with HCT-116 colon, 14.3 µM. Moreover, the TGI with UO-31 renal was 43.9 µM; in the assay on HOP-92 NSCLC it was 52 µM; in the assay with 786-0 renal, more than 100 µM; in the assay with MOLT-4 leukemia, more than 100 µM.

On to `Nc1nc2c(c3ncncc13)C(c1cccc(C(F)(F)F)c1)Cc1ncncc1-2` (stereo not drawn), for which the GI50 was 5.17 µM in the assay on NCI-H23 lung; 3.11 µM with SNB-75 CNS; 5.36 µM in the assay with LOX IMVI melanoma; 11.1 µM with MDA-MB-231 breast; 11.4 µM with SK-MEL-28 melanoma; 4.85 µM in the assay on HCT-116 colon. Further, the GI50 in the assay on UO-31 renal was 7.22 µM; in the assay on HOP-92 NSCLC it was 6.92 µM; in the assay with 786-0 renal it was 4.43 µM; with MOLT-4 leukemia, 4.78 µM. Besides, the TGI was more than 100 µM with NCI-H23 lung; 43.7 µM in the assay on SNB-75 CNS; 21.1 µM in the assay with LOX IMVI melanoma; 31.3 µM in the assay with MDA-MB-231 breast; 26.9 µM in the assay with SK-MEL-28 melanoma; 37 µM in the assay with HCT-116 colon. Besides, the TGI in the assay with UO-31 renal worked out at 85 µM; in the assay with HOP-92 NSCLC, 57.9 µM; in the assay with 786-0 renal it was 27.4 µM; in the assay on MOLT-4 leukemia, 34.9 µM.
